Measurements from patent publication US8835644B2, “Broad spectrum benzothiophene-nitrothiazolide and other antimicrobials” (University of Virginia Patent Foundation, priority 2009, dated 2014).

System: C. difficile
Test: Disk diffusion (Kirby Bower), C. difficile
Assay type: cell-based, Clostridium difficile
Settings: for Disk Diff (%) C. difficile: Nitazoxanide = 100
Method in brief: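 Values are broth-dilution MICs, defined as the well showing no growth on visual reading after 24 h; the tested range was 32 to 0.06 μg/ml, in organism-specific media (LB, Trypticase Soy, Brain Heart Infusion). The C. difficile entries come instead from anaerobic Kirby-Bauer disk zones, normalised to NTZ.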

CC(=O)Oc1ccccc1C(=O)Nc1ncc([N+](=O)[O-])s1 [Nitazoxanide, 2-(acetyloxy)-N-(5-nitro-2-thiazolyl)benzamide, reference compound]
100%: Disk Diff (%) C. difficile (2-amino-3,5-dinitrothiophene analogues table) | Disk Diff (%) C. difficile (Furan analogues table) | Disk Diff (%) C. difficile (Thiophene analogues table) | Disk Diffusion (%) C. difficile (zone of inhibited growth as relative ratio to the zone for NTZ)
